{"source": "patent US20240226072A1", "about": "(Stichting Het Nederlands Kanker Instituut, priority 2022, published 2024)", "key": {"[1]": {"assay": "in vivo", "conditions": "male, mouse, po, 25 mg/kg, Tmax", "experimental": "(§1) The Jevtana (10 mg/mL) solution contains 0.26 mg/mL polysorbate 80 and 15% (w/v) ethanol, and is adjusted to pH 2-6 with citric acid. […] The stock solution was further diluted 5-fold with water to reach a 2.5 mg/mL dosing solution for oral administration. The vehicle solution only consists of polysorbate 80, ethanol and water (1:1:8, v/v/v). […] All dosing solutions were prepared freshly on the day of the experiment.\n(§2) At the termination time point of 24 hours, mice were anesthetized using an isoflurane evaporator with 3% isoflurane with 0.8 L/min air and 0.3 L/min oxygen. A final blood sample was taken using cardiac puncture, using Eppendorf tubes previously prepared with heparin as an anticoagulant. Subsequently, the anesthetized mice were sacrificed by cervical dislocation and the tissues of interest were collected. Brain, liver, spleen, kidney, small intestine, and testis were collected. The small intestinal content (SIC) was separately collected by removing this from the small intestinal tissue, which was subsequently rinsed with saline to remove possibly fecal residue. The blood samples were centrifuged at 9,000×g for 6 minutes at 4° C., and the plasma fraction was isolated and stored at −30° C. until analysis. Brain, liver, spleen, kidney, small intestinal tissue, SIC, and testis were homogenized in a FastPrep-24™ 5G homogenizer (M. P. Biomedicals, Santa Ana, CA, USA) for 1 min with 1, 3, 1, 2, 3, 2, and 1 mL of 2% (w/v) BSA in Milli-Q water, respectively. Until analysis of the samples, they were all stored at −30° C.\n(§3) Pharmacokinetic parameters were estimated by non-compartmental analysis using the software package of PK solutions 2.0.2 (SUMMIT, Research Service). The area under the curve (AUC) of the plasma-concentration time curve for all the compounds was calculated using the linear trapezoidal rule without extrapolating to infinity. The peak plasma concentration (Cmax) and the time to reach peak plasma concentration (Tmax) were obtained directly from the individual raw data. For the statistical analysis and the graphs GraphPad Prism 9 (GraphPad Software Inc., La Jolla, CA, USA) was used. The statistics for the comparison of multiple groups were calculated with the one-way analysis of variance (ANOVA), whereas Sidak's post hoc correction was performed. Log-transformation before statistical analysis was applied, when variances within the groups were not homogeneously distributed. Differences were considered statistically significant when P<0.05. All data are presented as geometric mean±SD.\nThe last parameter is in many cases the most useful, as it takes the overall exposure into account."}, "[2]": {"assay": "Plasma pharmacokinetics and tissue distribution 2 h after oral cabazitaxel 10 mg/kg with vehicle or 25 mg/kg ritonavir in wild-type, Oatp1a/1b−/−, Oatp1a/1b/2b1−/−, OATP1B1- and OATP1B3-transgenic mice", "type": "in vivo", "conditions": "ritonavir 25 mg/kg oral, cabazitaxel 10 mg/kg oral; for CLiver / Cbrain / Pbrain, brain accumulation per h / SIC (% of dose), small intestinal content: 2 h; for AUC(0-t) / Cmax / Tmax: male, FVB, mouse, plasma, po, 25 mg/kg; for AUC(0-t): AUC0-[…]", "experimental": "All animals were fasted 2 to 3 hours prior to the start of the experiment to minimize variation in absorption after oral administration. […] Subsequently, cardiac puncture was performed with a heparinized needle and syringe collecting a final blood sample. […] All samples were stored at −30° C. until analysis.\nDifferences were considered statistically significant when P<0.05. All data are presented as geometric mean±SD."}, "[3]": {"conditions": "input of human simulation, cited from earlier work"}, "[4]": {"assay": "in vivo", "conditions": "male, mouse, po; for AUC(0-t): AUC0-24 h", "experimental": "as §1, §2, §3"}}, "data": [{"molecule": "CC(C)c1nc(CN(C)C(=O)N[C@H](C(=O)N[C@@H](Cc2ccccc2)C[C@H](O)[C@H](Cc2ccccc2)NC(=O)OCc2cncs2)C(C)C)cs1", "note": "[ritonavir]", "values": [{"measurement": "Tmax", "setting": "[1]; Cyp3a−/− (FVB background)", "value": "2.33 ± 0.82", "unit": "h"}, {"measurement": "Tmax", "setting": "[1]; wild-type FVB", "value": 2, "unit": "h"}, {"measurement": "CLiver", "setting": "[2]; OATP1B1-transgenic mice", "value": "42478 ± 7201", "unit": "pmol/g"}, {"measurement": "Cbrain", "setting": "[2]; OATP1B1-transgenic mice", "value": "277 ± 96.0", "unit": "pmol/g"}, {"measurement": "Pbrain, brain accumulation per h", "setting": "[2]; OATP1B1-transgenic mice", "value": "0.012 ± 0.002", "unit": "h⁻¹"}, {"measurement": "SIC (% of dose), small intestinal content", "setting": "[2]; OATP1B1-transgenic mice", "value": "5.81 ± 3.14 % of dose"}, {"measurement": "CLiver", "setting": "[2]; OATP1B3-transgenic mice", "value": "45512 ± 4650", "unit": "pmol/g"}, {"measurement": "Cbrain", "setting": "[2]; OATP1B3-transgenic mice", "value": "249 ± 47.9", "unit": "pmol/g"}, {"measurement": "Pbrain, brain accumulation per h", "setting": "[2]; OATP1B3-transgenic mice", "value": "0.013 ± 0.005", "unit": "h⁻¹"}, {"measurement": "SIC (% of dose), small intestinal content", "setting": "[2]; OATP1B3-transgenic mice", "value": "4.44 ± 2.65 % of dose"}, {"measurement": "CLiver", "setting": "[2]; Oatp1a/1b/2b1−/− mice", "value": "38153 ± 8561", "unit": "pmol/g"}, {"measurement": "Cbrain", "setting": "[2]; Oatp1a/1b/2b1−/− mice", "value": "236 ± 82.5", "unit": "pmol/g"}, {"measurement": "Pbrain, brain accumulation per h", "setting": "[2]; Oatp1a/1b/2b1−/− mice", "value": "0.014 ± 0.003", "unit": "h⁻¹"}, {"measurement": "SIC (% of dose), small intestinal content", "setting": "[2]; Oatp1a/1b/2b1−/− mice", "value": "6.03 ± 3.23 % of dose"}, {"measurement": "CLiver", "setting": "[2]; Oatp1a/1b−/− mice", "value": "43800 ± 5797", "unit": "pmol/g"}, {"measurement": "Cbrain", "setting": "[2]; Oatp1a/1b−/− mice", "value": "306 ± 45.5", "unit": "pmol/g"}, {"measurement": "Pbrain, brain accumulation per h", "setting": "[2]; Oatp1a/1b−/− mice", "value": "0.014 ± 0.003", "unit": "h⁻¹"}, {"measurement": "SIC (% of dose), small intestinal content", "setting": "[2]; Oatp1a/1b−/− mice", "value": "3.84 ± 2.08 % of dose"}, {"measurement": "AUC(0-t)", "setting": "[2]; OATP1B1-transgenic mice", "value": "14.3 ± 2.02", "unit": "µM·h"}, {"measurement": "AUC(0-t)", "setting": "[2]; OATP1B3-transgenic mice", "value": "14.8 ± 1.22", "unit": "µM·h"}, {"measurement": "AUC(0-t)", "setting": "[2]; Oatp1a/1b/2b1−/− mice", "value": "13.1 ± 2.14", "unit": "µM·h"}, {"measurement": "AUC(0-t)", "setting": "[2]; Oatp1a/1b−/− mice", "value": "16.9 ± 3.95", "unit": "µM·h"}, {"measurement": "AUC(0-t)", "setting": "[2]; wild-type mice", "value": "5.96 ± 1.15", "unit": "µM·h"}, {"measurement": "Cmax", "setting": "[2]; OATP1B1-transgenic mice", "value": "8.35 ± 1.3", "unit": "µM"}, {"measurement": "Tmax", "setting": "[2]; OATP1B1-transgenic mice", "value": 1.17, "unit": "h"}, {"measurement": "Cmax", "setting": "[2]; OATP1B3-transgenic mice", "value": "8.67 ± 1.15", "unit": "µM"}, {"measurement": "Tmax", "setting": "[2]; OATP1B3-transgenic mice", "value": 1.33, "unit": "h"}, {"measurement": "Cmax", "setting": "[2]; Oatp1a/1b/2b1−/− mice", "value": "7.74 ± 1.12", "unit": "µM"}, {"measurement": "Tmax", "setting": "[2]; Oatp1a/1b/2b1−/− mice", "value": 1, "unit": "h"}, {"measurement": "Cmax", "setting": "[2]; Oatp1a/1b−/− mice", "value": "11.2 ± 5.21", "unit": "µM"}, {"measurement": "Tmax", "setting": "[2]; Oatp1a/1b−/− mice", "value": 1.21, "unit": "h"}, {"measurement": "Cmax", "setting": "[2]; wild-type mice", "value": "3.62 ± 0.765", "unit": "µM"}, {"measurement": "Tmax", "setting": "[2]; wild-type mice", "value": 0.667, "unit": "h"}, {"measurement": "CLiver", "setting": "[2]; wild-type mice", "value": "44998 ± 6028", "unit": "pmol/g"}, {"measurement": "Pbrain, brain accumulation per h", "setting": "[2]; wild-type mice", "value": "0.010 ± 0.002", "unit": "h⁻¹"}, {"measurement": "SIC (% of dose), small intestinal content", "setting": "[2]; wild-type mice", "value": "3.90 ± 2.22 % of dose"}, {"measurement": "IIV CL", "setting": "[3]", "value": 46.7, "unit": "CV%"}, {"measurement": "CL", "setting": "[3]; source (18)", "value": 7.72, "unit": "L/h"}, {"measurement": "IIV CV", "setting": "[3]; source (18)", "value": 12.8, "unit": "CV%"}, {"measurement": "IIV F", "setting": "[3]; source (18)", "value": 52.2, "unit": "CV%"}, {"measurement": "IIV Vc", "setting": "[3]; source (18)", "value": 93.5, "unit": "CV%"}, {"measurement": "IOV CV", "setting": "[3]; source (18)", "value": 22.2, "unit": "CV%"}, {"measurement": "IOV MAT", "setting": "[3]; source (18)", "value": 32.1, "unit": "CV%"}, {"measurement": "MAT", "setting": "[3]; source (18)", "value": 8.45, "unit": "h"}, {"measurement": "Q", "setting": "[3]; source (18)", "value": 3.99, "unit": "L/h"}, {"measurement": "V", "setting": "[3]; source (18)", "value": 23, "unit": "L"}, {"measurement": "Vp", "setting": "[3]; source (18)", "value": 17.9, "unit": "L"}, {"measurement": "AUC(0-t)", "setting": "[4]; Cyp3aXAV (human CYP3A in Cyp3a−/−, FVB background), 1 mg/kg", "value": "0.000447 ± 0.000766", "unit": "µM·h"}, {"measurement": "AUC(0-t)", "setting": "[4]; FVB (wild-type), 1 mg/kg", "value": "0.00591 ± 0.0018", "unit": "µM·h"}, {"measurement": "Cmax", "setting": "[4]; FVB, Cyp3aXAV, 1 mg/kg", "value": "0.000532 ± 0.00108", "unit": "µM"}, {"measurement": "Tmax", "setting": "[4]; FVB, Cyp3aXAV, 1 mg/kg", "value": "1.38 ± 3.25", "unit": "h"}, {"measurement": "AUC(0-t)", "setting": "[4]; FVB, Cyp3aXAV, 10 mg/kg", "value": "0.075 ± 0.0188", "unit": "µM·h"}, {"measurement": "Cmax", "setting": "[4]; FVB, Cyp3aXAV, 10 mg/kg", "value": "0.0829 ± 0.0159", "unit": "µM"}, {"measurement": "Tmax", "setting": "[4]; FVB, Cyp3aXAV, 10 mg/kg", "value": 0.25, "unit": "h"}, {"measurement": "Cmax", "setting": "[4]; FVB, wild-type, 1 mg/kg", "value": "0.00576 ± 0.00138", "unit": "µM"}, {"measurement": "Tmax", "setting": "[4]; FVB, wild-type, 1 mg/kg", "value": "0.33 ± 0.13", "unit": "h"}, {"measurement": "AUC(0-t)", "setting": "[4]; FVB, wild-type, 10 mg/kg", "value": "1.44 ± 0.529", "unit": "µM·h"}, {"measurement": "Cmax", "setting": "[4]; FVB, wild-type, 10 mg/kg", "value": "0.749 ± 0.322", "unit": "µM"}, {"measurement": "Tmax", "setting": "[4]; FVB, wild-type, 10 mg/kg", "value": "0.92 ± 0.2", "unit": "h"}]}]}
